{"source": "patent US20080287486A1", "about": "“Prokinetic agent for bowel preparation” (Theravance, Inc., priority 2007, published 2008)", "test_system": "healthy subjects", "experiment": "Measurement of onset of bowel movement in healthy subjects (stool diary card, rising single doses)", "format": "in vivo, human", "conditions": "for Mean Number of Bowel Movements / Median Time to First Bowel Movement: first 24 hour post dosing period; for Mean Number of Bowel Movements: standard deviation in parentheses; for Median Time to First Bowel Movement: gelatin capsules; for average Bristol score (stool consistency, 1 hard pellets to 7 liquid): placebo 3.2 (0.7)", "method": "Subjects were monitored for safety and evidence of prokinetic effects using a stool diary card. Time and consistency (Bristol score) of each bowel movement were recorded."}
{"smiles": "CC(C)n1c(=O)c(C(=O)N[C@H]2C[C@H]3CC[C@@H](C2)N3C[C@@H](O)CN(C)S(C)(=O)=O)cc2ccccc21.Cl", "note": "[prokinetic agent, 1-isopropyl-2-oxo-1,2-dihydroquinoline-3-carboxylic acid {(1S,3R,5R)-8-[(R)-2-hydroxy-3-(methanesulfonyl-methyl-amino)propyl]-8-aza-bicyclo[3.2.1]oct-3-yl}amide hydrochloride]", "values": [{"measurement": "Mean Number of Bowel Movements", "setting": "10 mg dose", "value": "2.1 (1.2)"}, {"measurement": "Median Time to First Bowel Movement", "setting": "10 mg dose", "value": 1.6, "unit": "h"}, {"measurement": "Mean Number of Bowel Movements", "setting": "20 mg dose", "value": "2.0 (1.5)"}, {"measurement": "Median Time to First Bowel Movement", "setting": "20 mg dose", "value": 1.0, "unit": "h"}, {"measurement": "Mean Number of Bowel Movements", "setting": "30 mg dose", "value": "3.6 (2.4)"}, {"measurement": "Median Time to First Bowel Movement", "setting": "30 mg dose", "value": 1.1, "unit": "h"}, {"measurement": "Mean Number of Bowel Movements", "setting": "50 mg dose", "value": "5.9 (3.9)"}, {"measurement": "Median Time to First Bowel Movement", "setting": "50 mg dose", "value": 1.1, "unit": "h"}, {"measurement": "average Bristol score (stool consistency, 1 hard pellets to 7 liquid)", "setting": "50 mg dose", "value": "5.6 (0.9)"}, {"measurement": "Mean Number of Bowel Movements", "setting": "70 mg dose", "value": "6.0 (3.0)"}, {"measurement": "Median Time to First Bowel Movement", "setting": "70 mg dose", "value": 0.9, "unit": "h"}, {"measurement": "average Bristol score (stool consistency, 1 hard pellets to 7 liquid)", "setting": "plateau at 20-70 mg", "value": "5.4-6.0"}, {"measurement": "time at which the effect dissipated post dosing", "setting": "post dosing", "value": "24 to 48", "unit": "h"}]}
